{"source": "patent US20230355608A1", "about": "“TARGETING POLYCYTHEMIA VERA (PV)-INITIATING CELLS BY BLOCKING LEUKOTRIENE BINDING TO THEIR RECEPTORS” (UNIVERSITY OF MASSACHUSETTS, priority 2020, published 2023)", "key": {"HEL cells [1]": {"test_system": "HEL cells", "test": "Apoptosis assay by FACS (Annexin V and 7-AAD)", "format": "cell-based, human", "details": "compared with Ba/F3 cells", "experimental": "(§1) A mouse Ba/F3 cell line transduced with pMSCV-IRES-GFP was used as a control. Mouse JAK2V617F-GFP-expressing Ba/F3 cell line was kindly provided by Dr. Ross Levine (Human Oncology and Pathogenesis Program, Memorial Sloan-Kettering Cancer Center, New York, NY). Human JAK2V617F-expressing HEL cell line was purchased from ATCC. Cell lines were cultured in RPMI-1640 medium containing 10% FCS and 50 μmol/L 2-mercaptoethanol. Ba/F3 cell line was cultured in the medium mentioned above with 10 ng/ml IL3. C57BL/6J mice were obtained from The Jackson Laboratory.\n(§2) Cell numbers were counted in duplicates by trypan blue (Sigma-Aldrich) exclusion at 24 h and 48 h, respectively. FACS analysis was applied for cell cycle test using Hoechst and Pyronin (Sigma-Aldrich) staining, and for apoptosis assay staining with Annexin V and 7-AAD (eBiosciences) according to the manufacturer's instructions. Results are expressed as the mean±SD."}, "[2]": {"test_system": "JAK2V617F-induced PV mice", "experimental": "The bone marrow cells from donor mice, pretreated with 5-fluorouracil (5-FU), were infected with retrovirus containing pMSCV-JAK2V617F-GFP under conditions for the induction of PV as described previously, followed by transplantation of the transduced cells into C57BL/6J recipient mice.\nTo test this hypothesis, bone marrow cells (BM) were collected for FCM analysis after 4 months treatment.\nPV model was induced in mice as follows: Bone marrow cells from 5-FU-treated (200 mg/kg) donor mice were transduced twice with JAK2V617F retrovirus in the presence of IL-3, IL-6, and stem cell factor (SCF). The recipient mice received 1,100 cGy lethal gamma irradiation (given by 2 split 550-cGy doses), followed by 2.0×10^6 cells transplantation via tail vein injection.\nHematopoietic cells were collected from peripheral blood and bone marrow of the PV mice, and red blood cells (RBCs) were eliminated using RBC lysis buffer (pH 7.4). Then the cells were stained with fluorescence-labeled antibodies (Gr−1 for neutrophils, c-kit and Sca−1 for stem cells) and subjected to FACS analysis. These antibodies were purchased from eBioscience Biotechnology. Data were acquired on a FACS Calibur flow cytometric analyzer (Becton Dickinson).\nWater was used as placebo."}, "[3]": {"test_system": "primary CD34+ blood cells from two CML patients", "details": "Yektaei-Karin et al. 2017; cited from earlier work"}, "K562 cells": {"test_system": "K562 cells", "details": "Yektaei-Karin et al. 2017; cited from earlier work"}, "[4]": {"test_system": "JAK2V617F-expressing human HEL cells", "test": "Cell growth, trypan blue exclusion cell count", "format": "cell-based", "details": "various doses (10-40 μM), 24 and 48 hours", "experimental": "as §1, §2"}, "KCL22 cells": {"test_system": "KCL22 cells", "details": "Yektaei-Karin et al. 2017; cited from earlier work"}, "Ba/F3-JAK2V617F cells [5]": {"test_system": "Ba/F3-JAK2V617F cells", "test": "Cell-cycle progression by FACS (Hoechst and Pyronin)", "format": "cell-based, mouse", "experimental": "as §1, §2"}, "parental Ba/F3 cells": {"test_system": "parental Ba/F3 cells", "test": "Cell-cycle progression by FACS (Hoechst and Pyronin)", "format": "cell-based, mouse", "details": "parental Ba/F3 cells that do not express JAK2V617F", "experimental": "as §1, §2"}, "KU812 cells": {"test_system": "KU812 cells", "details": "Yektaei-Karin et al. 2017; cited from earlier work"}, "[6]": {"test_system": "JAK2V617F-expressing Ba/F3 cells", "test": "Cell growth, trypan blue exclusion cell count", "format": "cell-based, mouse", "details": "various doses (10-40 μM), 24 and 48 hours", "experimental": "as §1, §2"}, "Ba/F3 cells": {"test_system": "Ba/F3 cells", "test": "Cell growth, trypan blue exclusion cell count", "format": "cell-based, mouse", "details": "various doses (10-40 μM), 24 and 48 hours", "experimental": "as §1, §2"}, "HEL cells [7]": {"test_system": "HEL cells", "test": "Cell-cycle progression by FACS (Hoechst and Pyronin)", "format": "cell-based, human", "experimental": "as §1, §2"}, "Ba/F3-JAK2V617F cells [8]": {"test_system": "Ba/F3-JAK2V617F cells", "test": "Apoptosis assay by FACS (Annexin V and 7-AAD)", "format": "cell-based, mouse", "details": "compared with Ba/F3 cells", "experimental": "as §1, §2"}, "[9]": {"test_system": "human CD34+ cells from Polycythemia Vera (PV) patients", "details": "Chen et al., Cancer Research 77(1):164-174; cited from earlier work"}, "[10]": {"test_system": "JAK2V617F-induced PV in mice", "details": "Chen et al., Cancer Research 77(1):164-174; cited from earlier work"}, "[11]": {"details": "PV mice, 150 mg/kg once a day by gavage, vs placebo"}, "[12]": {"details": "PV mice, 150 mg/kg once a day by gavage, vs placebo, from 3rd month post treatment"}, "[13]": {"details": "PV mice, 150 mg/kg once a day by gavage, vs placebo, 150 mg/kg"}, "[14]": {"details": "PV mice, after 4 months treatment, vs placebo"}}, "note": "“Also recorded” adds a separate entry of the source.", "data": [{"smiles": "CC(C)(O)c1ccccc1CC[C@@H](SCC1(CC(=O)[O-])CC1)c1cccc(/C=C/c2ccc3ccc(Cl)cc3n2)c1.[Na+]", "note": "[Montelukast, (R-(E))-1-(((1-(3-(2-(7-Chloro-2-quinolinyl)ethenyl)phenyl)-3-(2-(1-hydroxy-1-methylethyl)phenyl)propyl)thio)methyl)-cyclopropaneacetic acid]", "values": [{"measurement": "apoptosis", "setting": "HEL cells [1]", "result": "more dramatic apoptosis"}, {"measurement": "non GFP (GFP-) cells (FIG. 5)", "setting": "[2]; PV mice vs placebo, at 10 weeks", "result": "showed a loss"}, {"measurement": "GFP+ cells (FIG. 5)", "setting": "[2]; PV mice vs placebo, by 6 and 10 weeks post treatment", "result": "loss of the GFP+ cells"}, {"measurement": "level of PLT", "setting": "[2]; [11]", "result": "did not significantly affect"}, {"measurement": "level of RBC", "setting": "[2]; [11]", "result": "did not significantly affect"}, {"measurement": "GFP+Gr-1+ PV cell number in peripheral blood", "setting": "[2]; [12]", "result": "increased more slowly"}, {"measurement": "GFP+Gr-1+ PV cell percentage in peripheral blood", "setting": "[2]; [12]", "result": "increased more slowly"}, {"measurement": "HCT", "setting": "[2]; [13]", "result": "had an inhibitor compound effect"}, {"measurement": "HGB", "setting": "[2]; [13]", "result": "had an inhibitor compound effect"}, {"measurement": "fibrosis in bone marrow", "setting": "[2]; [13]", "result": "efficiently relieved the fibrosis; also recorded: efficiently relieved fibrosis morphology"}, {"measurement": "GFP-Gr-1+ cell number in peripheral blood", "setting": "[2]; PV mice, 150 mg/kg once a day by gavage, vs placebo, normal cells, 150 mg/kg", "result": "didn't show significant difference; also recorded: did not show a significant difference"}, {"measurement": "GFP+ PV cell number in BM", "setting": "[2]; [14]", "result": "dramatic decrease"}, {"measurement": "GFP+ PV cell percentage in BM", "setting": "[2]; [14]", "result": "dramatic decrease"}, {"measurement": "cell growth", "setting": "[3]", "result": "significantly reduced the growth"}, {"measurement": "cell growth", "setting": "K562 cells", "result": "significantly reduced the growth"}, {"measurement": "cell growth", "setting": "[4]", "result": "dose-dependent growth inhibition"}, {"measurement": "cell growth", "setting": "KCL22 cells", "result": "significantly reduced the growth"}, {"measurement": "cell-cycle progression", "setting": "Ba/F3-JAK2V617F cells [5]", "result": "blockade of cell-cycle progression"}, {"measurement": "cell-cycle progression", "setting": "parental Ba/F3 cells", "result": "no significant cell-cycle block effect"}, {"measurement": "cell growth", "setting": "KU812 cells", "result": "significantly reduced the growth"}, {"measurement": "cell growth", "setting": "[6]", "result": "dose-dependent growth inhibition"}, {"measurement": "cell growth", "setting": "Ba/F3 cells", "result": "dose-dependent growth inhibition"}, {"measurement": "cell-cycle progression", "setting": "HEL cells [7]", "result": "blockade of cell-cycle progression"}, {"measurement": "apoptosis", "setting": "Ba/F3-JAK2V617F cells [8]", "result": "more dramatic apoptosis"}]}, {"smiles": "CC(c1cc2ccccc2s1)N(O)C(N)=O", "note": "(centres unmarked) [Zileuton]", "values": [{"measurement": "proliferation of human CD34+ cells from PV patients", "setting": "[9]", "result": "reducing proliferation"}, {"measurement": "development of PV in mice", "setting": "[10]", "result": "attenuates the development of PV"}]}]}
